How the values were obtained:
[1] = test system: Male KKAy mice (model for type 2 diabetes); test: Serum glucose level in KKAy mice (enzyme method, L-type Wako GLU2); assay type: in vivo; conditions: n=6, subcutaneous 3 mg/5 mL/kg twice a day for 2 weeks, serum from orbital venous plexus blood, control group 532, healthy group 211, ** P<0.01
Procedure: (§1) Male KKAy mice (11 to 12 weeks old) (each n=6) were used as a model for type 2 diabetes. 11% sulfobutyl ether-β-cyclodextrin was added to the compounds of Examples 1 and 59, and these products were administered subcutaneously in a dose of 3 mg/5 mL/kg, twice a day, continuously for 2 weeks. A group that was given just the vehicle was used as a control group, and male C57BL/6J mice (11 to 12 weeks old) (n=6) that had similarly been given the vehicle were used for a healthy group. The livers were collected, and a Triglyceride E Test Wako (Wako Pure Chemicals) was used to quantify the triglyceride content in the liver. […] Blood was also sampled from the orbital venous plexus, and the glucose level in the separated serum was quantified by enzyme method using a L-type Wako GLU2 (Wako Pure Chemicals).

[2] = test system: Male KKAy mice (model for type 2 diabetes); test: Triglyceride content in the liver of KKAy mice (Triglyceride E Test Wako); assay type: in vivo; conditions: n=6, subcutaneous 3 mg/5 mL/kg twice a day for 2 weeks, control group 61.7, healthy group 12.5, * P<0.05, ** P<0.01
Procedure: as §1

SMILES	Blood glucose level [1]	Triglyceride content in liver [2]
Cc1cc(C)c2c(c1)-c1sc(CCO)cc1CC2 [Example 59, 2-(2-hydroxyethyl)-4,5-dihydro-6,8-dimethylnaphtho[1,2-b]thiophene]	269** mg/dL	34.8** mg/g liver
CC(=O)c1cc2c(s1)-c1cc(C)cc(C)c1CC2 [Example 1, 2-acetyl-4,5-dihydro-6,8-dimethylnaphtho[1,2-b]thiophene]	491 mg/dL	47.5* mg/g liver

Source: patent US20060189678A1, “4,5-dihydronaphtho[1,2-b]thiophene derivative” (priority 2003, published 2006)
